Consider two molecules from patent US10881642B2, “Autophagy enhancer and use thereof” (Industry-Academic Cooperation Foundation, Yonsei University, priority 2016, dated 2021).

The subject of the experiment is HeLa cells. In words: GCaMP3-ML1 lysosomal Ca2+ release imaging. The class given is cell-based. The conditions noted are these: GPN 200 μM; ionomycin 1 μM.

Peptide text beside a SMILES is read from it. * marks the point of attachment. βNA = c1ccc2cc(N*)ccc2c1

Description: HeLa cells were transfected with perilysosomal GCaMP3-ML1 calcium probe, and Ratiometric image (474 and 410 nm excitation) was obtained.
GCaMP3 Ca2+ Imaging. HeLa cells were grown on 15 mm coverslips and transfected with plasmid encoding the perilysosomal-localized ML1-GCaMP3 calcium probes.

For the molecule `NCC(=O)N[C@@H](Cc1ccccc1)C(=O)Nc1ccc2ccccc2c1` [GPN] (H-Gly-Phe-βNA), the “lysosomal Ca2+ release” value is on record as “induced lysosomal Ca2+ release”. Then `C[C@H](CCC(=O)O)C[C@H](C)C[C@H](C)C(=O)/C=C(\O)[C@H](C)C[C@H](C)C/C=C/[C@@H](C)[C@@H](O)[C@@H](C)[C@@H](O)C[C@@H]1CC[C@@](C)([C@H]2CC[C@@](C)([C@@H](C)O)O2)O1` [ionomycin], with “induced lysosomal Ca2+ release”.
